These are literature values, as cited in US5268308A, “Immunoassay for pyridostigmine” (priority 1989, dated 1993).

One series deals with acetylcholinesterase. The note with it: cited from earlier work.
The subject of a further series is central nervous system. The note with it: moderate doses; cited from earlier work.

For `CN(C)C(=O)Oc1ccc[n+](C)c1` [Pyridostigmine], the cholinesterase inhibition entry in the series on acetylcholinesterase was “reversible cholinesterase inhibitor”. The “effect on the central nervous system” value in the series on central nervous system was “usually do not effect the central nervous system”.
